Test results as given in patent US20100272736A1, “COMBINATION ANTIBIOTIC AND ANTIBODY THERAPY FOR THE TREATMENT OF PSEUDOMONAS AERUGINOSA INFECTION” (priority 2009, published 2010).

Assays:
PA103 = PA103 antibiotic sensitivity (MicroScan Neg Combo plates, CLSI guidelines); assay type: cell-based, P. aeruginosa; conditions: conventional antibiotic resistance testing, CLSI interpretation
Source text: PA103 antibiotic sensitivity Dade Behring MicroScan Neg Combo plates were used to determine the antibiotic sensitivity of PA103 by conventional antibiotic sensitivity testing according to the manufacturers instructions.
(§1) The acutely infectious strain P. aeruginosa PA103 was used for this study.

P. aeruginosa PA103 [1] = experiment: Acute murine airway infection model: survival and body temperature (Mab166 iv, antibiotic ip); assay type: in vivo, mice; conditions: for survival rate over a 7 day period: antibiotic alone ip Q8H (ciprofloxacin 100 mg/kg, tobramycin 3.3 mg/kg, ceftazidime 1000 mg/kg); for survival (piperacillin experiment): piperacillin/tazobactam 1000 mg/kg ip Q8H, Mab166 300 μg iv, FIG. 7
Method: Bacterial administration and lung injury measurement in mice. Following anesthesia with avertin (250 mg kg^−1; ip), mice were inoculated with a volume of fifty μl of bacterial working stock (1.5×10^6 CFU), which was instilled into the left lung through the trachea using a 27G gavages needle. Mice were allowed to recover for 15 minutes prior to being returned to their cages. […] Rectal temperature was recorded hourly for the initial 12 hours post bacterial instillation followed by daily measurements for 7 days. Survival time was recorded for each mouse.
Antibiotics and PcrV antibody administration. […] All antibiotics were administrated intraperitoneally 1 hour after P. aeruginosa instillation. Four doses of each antibiotic were tested in mice to determine the dose needed to produce sub-optimal survival rates (40-60%) in mice infected with 1.5×10^6 PA103 CFU, which is a 3× lethal amount of bacteria.
Statistics. Kaplan-Meier plots were generated for survival analysis and ANOVA was used to compare lung injury score, bacterial CFU's and MPO activity in various treatment groups at specific time points; P 0.05 was considered significant.
as §1
Anti-PcrV antibody was intravenously injected one hour before P. aeruginosa instillation. Mice were then anesthetized with avertin (250 mg/kg), prior to instillation of 1.5×10^6 CFU PA103 into the trachea. Intraperitoneal piperacillin (1000 mg/kg, Q8H) injection commenced one hour after P. aeruginosa instillation and repeated until mice expired. Piperacillin was administered in combination with tazobactam (a pencillinase inhibitor), which is the standard practice for administration. In this example, “piperacillin” refers to piperacillin in combination with tazobactam.

P. aeruginosa PA103 [2] = experiment: Bacterial enumeration (CFU) in lungs, blood and spleen; assay type: in vivo, mice
Method: Bacterial enumeration. Lungs were removed aseptically from the thoracic cavity, placed in 1 ml of sterile PBS and homogenized. Spleens were aseptically removed and homogenized in 1 ml of PBS and blood was drawn from right ventricle puncture. All samples were serially diluted in sterile PBS and plated on P. aeruginosa isolation agar prior to overnight incubation at 37° C. Plates with cell counts between 30 and 300 were enumerated and mean CFU ml^−1 of triplicate counts was calculated for each sample.
These samples were analyzed for bacterial CFU's as described in materials and methods.

Row | SMILES | antibiotic susceptibility of PA103 (PA103) | survival rate over a 7 day period (P. aeruginosa PA103 [1]) [%] | survival (piperacillin experiment) (P. aeruginosa PA103 [1]) | survival (piperacillin experiment) (P. aeruginosa PA103 [1]; listed as Piperacillin) | P. aeruginosa CFU's in the blood (P. aeruginosa PA103 [2]; 8 and 24 hours post infection) | total CFU's in the lungs (P. aeruginosa PA103 [2]; 8 and 24 hours post infection, compared to control mice) | bacterial CFU's in the spleen (P. aeruginosa PA103 [2]; 24 hours vs 8 hours post infection)
1 | CC(C)(O/N=C(\C(=O)N[C@@H]1C(=O)N2C(C(=O)[O-])=C(C[n+]3ccccc3)CS[C@H]12)c1csc(N)n1)C(=O)O [ceftazidime] | susceptible | 40 | – | – | – | – | –
2 | CCN1CCN(C(=O)N[C@@H](C(=O)N[C@@H]2C(=O)N3[C@@H]2SC(C)(C)[C@@H]3C(=O)O)c2ccccc2)C(=O)C1=O [piperacillin] | – | – | increased survival minimally | slight increase in animal survival | – | – | –
3 | NC[C@H]1O[C@H](O[C@H]2[C@H](O)[C@@H](O[C@H]3O[C@H](CO)[C@@H](O)[C@H](N)[C@H]3O)[C@H](N)C[C@@H]2N)[C@H](N)C[C@@H]1O [tobramycin] | susceptible | 60 | – | – | significant (P=0.01, P=0.0046 respectively) increases | significantly lower | increased significantly
